The text below walks through data of patent US7687643B2, “Process for preparing 3,3-dimethylindolines” (Amgen Inc., priority 2001, dated 2010).

In the assay the test system is Human Umbilical Vein Endothelial cells (VEGF-stimulated). Put plainly: HUVEC proliferation assay, VEGF-stimulated. Type of assay: cell-based. The following applies: VEGF 50 ng/mL, 72 h, CyQuant, read-out: inhibited VEGF-stimulated HUVEC proliferation at a level. In short, it runs like this:
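Pooled-donor HUVECs (passage 2–3) seeded in DMEM+10% FBS for 22 h, then pre-treated 2–3 h with five-point, five-fold compound dilutions (0.25% DMSO final). Stimulated with 50 ng/mL VEGF (bFGF 20 ng/mL on separate plates) for 72 h at 37 °C. CyQuant fluorescence (485/530 nm) after freeze-thaw; IC50 from 4-parameter fit.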

pIC50: −log10 of the molar value.

As to `CC(C)(C)c1ccc(NC(=O)c2cccnc2NCc2ccnc(OCCCN3CCOCC3)c2)cc1` [Example 904, N-(4-tert-Butyl-phenyl)-2-{[2-(3-morpholin-4-yl-propoxy)-pyridin-4-ylmethyl]-amino}-nicotinamide], the pIC50 was above 7.30.

Consider `CC(=O)N1CC(C)(C)c2ccc(NC(=O)c3cccnc3Nc3ccc4c(c3)OCCO4)cc21` [Example 991, N-(1-Acetyl-3,3-dimethyl-2,3-dihydro-1H-indol-6-yl)-2-(2,3-dihydro-benzo[1,4]dioxin-6-ylamino)-nicotinamide], for which the pIC50 is above 7.30.

For the molecule `CC1(C)CNc2cc(NC(=O)c3cccnc3NCc3ccncn3)ccc21` [Example 1029, N-(3,3-Dimethyl-2,3-dihydro-1H-indol-6-yl)-2-((4-pyrimidinylmethyl)amino)-3-pyridinecarboxamide], the pIC50 is above 7.30.

Consider `CCN1CCC(C)(C)c2ccc(NC(=O)c3cccnc3NCc3ccnc(N)c3)cc21` [Example 1125, 2-[(2-Amino-pyridin-4-ylmethyl)-amino]-N-(1-ethyl-4,4-dimethyl-1,2,3,4-tetrahydro-quinolin-7-yl)-nicotinamide], for which the pIC50 is above 7.30.

`COC(=O)C(C)(C)c1ccc(NC(=O)c2cccnc2NCc2ccncc2)cc1` [Example 985, 2-Methyl-2-[4-({2-[(pyridin-4-ylmethyl)-amino]-pyridine-3-carbonyl}-amino)-phenyl]-propionic acid methyl ester]: the pIC50 was above 7.30.

For the molecule `COc1nccc(CNc2ncccc2C(=O)Nc2ccc(C(C)(C)C)c(NC(=O)CN(C)C)c2)n1` [Example 1074, N-(4-(1,1-dimethylethyl)-3-((N,N-dimethylglycyl)amino)phenyl)-2-(((2-(methyloxy)-4-pyrimidinyl)methyl)amino)-3-pyridinecarboxamide], the pIC50 was above 7.30.

For `CC(C)(C)c1ccc(NC(=O)c2cccnc2NCc2ccnc(Cl)c2)cc1` [Example 138, N-[4-(tert-Butyl)phenyl](2-{[(2-chloro(4-pyridyl))methyl]amino}(3-pyridyl))carboxamide], the pIC50 was above 7.30.

`CN1CC(C)(C)c2ccc(NC(=O)c3cccnc3NCc3ccncc3)cc21` [Example 1184, 2-[(Pyridin-4-ylmethyl)-amino]-N-(1,3,3-trimethyl-2,3-dihydro-1H-indol-6-yl)-nicotinamide]: the pIC50 is above 7.30.

`CNc1nccc(CNc2ncccc2C(=O)Nc2ccc3c(c2)CNCC3(C)C)n1` [Example 1038, N-(4,4-Dimethyl-1,2,3,4-tetrahydro-7-isoquinolinyl)-2-(((2-(methylamino)-4-pyrimidinyl)methyl)amino)-3-pyridinecarboxamide]: the pIC50 is above 7.30.

Regarding `CNc1nccc(CNc2ncccc2C(=O)Nc2ccc(C(F)(F)F)c(OCCNS(C)(=O)=O)c2)n1` [Example 1033, 2-(((2-(Methylamino)-4-pyrirnidinyl)methyl)amino)-N-(3-((2-((methylsulfonyl)amino)ethyl)oxy)-4-(trifluoromethyl)phenyl)-3-pyridinecarboxamide], the pIC50 is above 7.30.

For `COc1cc(CNc2ncccc2C(=O)Nc2ccc3c(c2)CNCC3(C)C)ccn1` [Example 1177, N-(4,4-Dimethyl-1,2,3,4-tetrahydro-isoquinolin-7-yl)-2-[(2-methoxy-pyridin-4-ylmethyl)-amino]-nicotinamide], the pIC50 is above 7.30.

`CC1(C)CN(S(C)(=O)=O)c2cc(NC(=O)c3cccnc3NCc3ccnc(N)c3)ccc21` [Example 1059, 2-(((2-amino-4-pyridinyl)methyl)amino)-N-(3,3-dimethyl-1-(methylsulfonyl)-2,3-dihydro-1H-indol-6-yl)-3-pyridinecarboxamide]: the pIC50 is above 7.30.

In the case of `CN(C)CCOCCOc1cc(CNc2ncccc2C(=O)Nc2ccc(C(C)(C)C)cc2)ccn1` [Example 151, (2-{[(2-{2-[2-(Dimethylamino)ethoxy]ethoxy}(4-pyridyl))methyl]amino}(3-pyridyl))-N-[4-(tert-butyl)phenyl]carboxamide], the pIC50 is above 7.30.

As to `CC1(C)CC(=O)Nc2cc(NC(=O)c3cccnc3NCc3ccncc3)ccc21` [Example 1114, N-(4,4-Dimethyl-2-oxo-1,2,3,4-tetrahydro-quinolin-7-yl)-2-[(pyridin-4-ylmethyl)-amino]-nicotinamide], the pIC50 was above 7.30.

As for `O=C(Nc1ccc(C(F)(F)C(F)(F)F)c(OC[C@H](O)CN2CCCC2)c1)c1cccnc1NCc1ccncc1` [Example 951, (R) N-[3-(2-Hydroxy-3-pyrrolidin-1-yl-propoxy)-4-pentafluoroethyl-phenyl]-2-[(pyridin-4-ylmethyl)-amino]-nicotinamide], the pIC50 was above 7.30.

For the molecule `CNc1nccc(CNc2ncccc2C(=O)Nc2cc(O[C@@H]3CCOC3)cc(C(F)(F)F)c2)n1` [Example 1084, 2-(((2-(methylamino)-4-pyrimidinyl)methyl)amino)-N-(3-((3R)-tetrahydro-3-furanyloxy)-5-(trifluoromethyl)phenyl)-3-pyridinecarboxamide], the pIC50 was above 7.30.

Take `COc1nccc(CNc2ncccc2C(=O)Nc2ccc3c(c2)N(C(C)=O)CC3(C)C)n1` [Example 1046, N-(1-acetyl-3,3-dimethyl-2,3-dihydro-1H-indol-6-yl)-2-(((2-(methyloxy)-4-pyrimidinyl)methyl)amino)-3-pyridinecarboxamide]: the pIC50 is above 7.30.

Turning to `CC(C)(C)c1ccc(NC(=O)c2cccnc2NCc2ccnc(OCCN3CCOCC3)c2)cc1` [Example 905, N-(4-tert-Butyl-phenyl)-2-{[2-(2-morpholin-4-yl-ethoxy)-pyridin-4-ylmethyl]-amino}-nicotinamide], the pIC50 was above 7.30.

On to `O=C(Nc1cc(O)cc(C(F)(F)F)c1)c1cccnc1NCc1ccncc1` [Example 978, N-(3-Hydroxy-5-trifluoromethyl-phenyl)-2-[(pyridin-4-ylmethyl)-amino]-nicotinamide], for which the pIC50 was above 7.30.

Take `O=C(Nc1cc(NC(=O)c2cccnc2NCc2ccncn2)cc(C(F)(F)F)c1)O[C@H]1CCOC1` [Example 1086, (3S)-tetrahydro-3-furanyl 3-(((2-((4-pyrimidinylmethyl)amino)-3-pyridinyl)carbonyl)amino)-5-(trifluoromethyl)phenylcarbamate]: the pIC50 was above 7.30.

Consider `CN1CCC[C@H]1COc1cc(NC(=O)c2cccnc2NCc2ccncn2)cc(C(F)(F)F)c1` [Example 1025, N-(3-((((2S)-1-Methyl-2-pyrrolidinyl)methyl)oxy)-5-(trifluoromethyl)phenyl)-2-((4-pyrimidinylmethyl)amino)-3-pyridinecarboxamide], for which the pIC50 is above 7.30.

On to `CC1(C)CNc2cc(NC(=O)c3cccnc3NCc3ccncc3)ccc21` [Example 133, N-(3,3-Dimethylindolin-6-yl){2-[(4-pyridylmethyl)amino](3-pyridyl)}carboxamide], for which the pIC50 is above 7.30.

As to `CS(=O)(=O)NCCOc1cc(NC(=O)c2cccnc2NCc2ccncc2)cc(C(F)(F)F)c1` [Example 1090, N-(3-((2-((methylsulfonyl)amino)ethyl)oxy)-5-(trifluoromethyl)phenyl)-2-((4-pyridinylmethyl)amino)-3-pyridinecarboxamide], the pIC50 was above 7.30.

Turning to `CN1CCC[C@@H]1COc1cc(NC(=O)c2cccnc2NCc2ccncc2)cc(C(F)(F)F)c1` [Example 917, (R) N-[3-(1-Methyl-pyrrolidin-2-ylmethoxy)-5-trifluoromethyl-phenyl]-2-[(pyridin-4-ylmethyl)-amino]-nicotinamide], the pIC50 was above 7.30.

Turning to `CNc1nccc(CNc2ncccc2C(=O)Nc2ccc3c(n2)NC(=O)CC3(C)C)n1` [Example 1135, N-(5,5-Dimethyl-7-oxo-5,6,7,8-tetrahydro-[1,8]naphthyridin-2-yl)-2-[(2-methylamino-pyrimidin-4-ylmethyl)-amino]-nicotinamide], the pIC50 was above 7.30.

For `CNc1cc(CNc2ncccc2C(=O)Nc2ccc3c(c2)NCCC3(C)C)ccn1` [Example 1194], the pIC50 was above 7.30.

In the case of `CNc1cc(CNc2ncccc2C(=O)Nc2ccc3c(c2)NCC3(C)C)ccn1` [Example 1104, N-(3,3-Dimethyl-2,3-dihydro-1H-indol-6-yl)-2-[(2-methylamino-pyridin-4-ylmethyl)-amino]-nicotinamide], the pIC50 was above 7.30.

In the case of `CNc1nccc(CNc2ncccc2C(=O)Nc2ccc3c(c2)CN(C)CC3(C)C)n1` [Example 1041, 2-(((2-(methylamino)-4-pyrimidinyl)methyl)amino)-N-(2,4,4-trimethyl-1,2,3,4-tetrahydro-7-isoquinolinyl)-3-pyridinecarboxamide], the pIC50 was above 7.30.

`CC(=O)N1CC(C)(C)c2ccc(NC(=O)c3cccnc3NCc3ccncn3)cc21` [Example 1022, N-(1-Acetyl-3,3-dimethyl-2,3-dihydro-1H-indol-6-yl)-2-((4-pyrimidinylmethyl)amino)-3-pyridinecarboxamide]: the pIC50 is above 7.30.

As for `COc1cc(CNc2ncccc2C(=O)Nc2ccc3c(c2)NCCC3(C)C)ccn1` [Example 1113, N-(4,4-Dimethyl-1,2,3,4-tetrahydro-quinolin-7-yl)-2-[(2-methoxy-pyridin-4-ylmethyl)-amino]-nicotinamide], the pIC50 was above 7.30.

With `O=C(Nc1ccc(C(F)(F)C(F)(F)F)c(OC[C@@H](O)CN2CCCC2)c1)c1cccnc1NCc1ccncc1` [Example 952, (S) N-[3-(2-Hydroxy-3-pyrrolidin-1-yl-propoxy)-4-pentafluoroethyl-phenyl]-2-[(pyridin-4-ylmethyl)-amino]-nicotinamide], the pIC50 is above 7.30.
